In ChEMBL document CHEMBL5584234, “Small molecules that regulate the N6-methyladenosine RNA modification as potential anti-cancer agents” (Eur J Med Chem, 2024):
Counter-ions that a name gives are not always drawn.

What was measured:
[1] = target: T1, Alpha-ketoglutarate-dependent dioxygenase FTO (Homo sapiens, UniProt Q9C0B1)
[2] = target: T1, Alpha-ketoglutarate-dependent dioxygenase FTO; remark: listed apart in the source
cells = conditions: Homo sapiens, AML1
RNA demethylase ALKBH5 = RNA demethylase ALKBH5 (Homo sapiens, UniProt Q6P6C2)
[3] = target: T2, N6-adenosine-methyltransferase catalytic subunit (Homo sapiens, UniProt Q86U44)
Huh-7 = assay: cells; conditions: Homo sapiens
[4] = target: T2, N6-adenosine-methyltransferase catalytic subunit; remark: listed apart in the source
[5] = target: T2, N6-adenosine-methyltransferase catalytic subunit; remark: listed apart in the source
[6] = target: T1, Alpha-ketoglutarate-dependent dioxygenase FTO; remark: listed apart in the source
[7] = target: N(6)-adenosine-methyltransferase catalytic subunit METTL3 (Mus musculus, UniProt Q8C3P7)
METTL3/METTL14 [8] = target: T3, METTL3/METTL14 (Homo sapiens, UniProt Q86U44)
METTL3/METTL14 [9] = target: T3, METTL3/METTL14; remark: listed apart in the source
[10] = target: T2, N6-adenosine-methyltransferase catalytic subunit; remark: listed apart in the source
ECa-109 cell line = assay: cells; conditions: Homo sapiens, ECa-109, 72 h
HeLa = assay: cells; conditions: Homo sapiens, 24 h
OCI-AML2 = assay: cells; conditions: Homo sapiens
[11] = target: YTH domain-containing protein 1 (Homo sapiens, UniProt Q96MU7)
METTL3/METTL14 [12] = target: T3, METTL3/METTL14; remark: listed apart in the source

In the case of `O=C(O)c1ccccc1-c1c2cc(Cl)c(=O)cc-2oc2cc(O)c(Cl)cc12`, the IC50 [1] is reported as 640 nM.

`O=C(O)CC[C@@H](O)C(=O)O` showed an IC50 [2] of 133000 nM.

For `Cc1noc(C)c1-c1cc(Cl)c(Nc2ccccc2C(=O)NO)c(Cl)c1`, the GI50 (cells) was 800 nM.

Work on `Cc1noc(C)c1-c1cc(Cl)c(Nc2ccccc2C(=O)O)c(Cl)c1` yielded a GI50 (cells) of 23000 nM.

`CCCc1c(C)nc2c3ccccc3oc(=S)n12` showed an IC50 (RNA demethylase ALKBH5) of 10000 nM.

Molecule `Cn1ccc(-c2cn([C@@H]3O[C@H](COc4ccc5ccc(N6CCC6)nc5c4)[C@@H](O)[C@@H]3F)c3ncnc(N)c23)n1` has an IC50 [3] of under 10 nM, a GI50 (Huh-7) of under 1000 nM and an IC50 [4] of under 1000 nM. For the same molecule, the IC50 [5] was under 10 nM.

Molecule `CCc1cc(N(C)CCOC)c2ccc(CCc3cncc(-n4cc(-c5ccn(C)n5)c5c(N)ncnc54)c3)cc2n1` has an IC50 [3] of under 10 nM, a GI50 (Huh-7) of under 1000 nM and an IC50 [4] of under 1000 nM. For the same molecule, the IC50 [5] was under 10 nM.

`Nc1ncnc2c1ncn2[C@@H]1O[C@H](C(=O)NCCCNC(=O)c2ccccn2)[C@@H](O)[C@H]1O` gave an IC50 [6] of 1500 nM.

`O=C(NCc1cn2cc(CNCC3CCCCC3)ccc2n1)c1cc(=O)n2ccccc2n1` gave a GI50 (Huh-7) of 600 nM and an IC50 [7] of 2810 nM.

`COc1cc(-c2cn(Cc3cn4cc(CNCC5CCC5)ccc4n3)nn2)c2cn[nH]c2c1` showed a GI50 (Huh-7) of 160 nM and an IC50 (METTL3/METTL14 [8]) of under 5 nM.

With `CC1(C)CCN(Cc2ccc3nc(Cn4cc(-c5cc(Br)cc6[nH]ncc56)nn4)cn3c2)CC1` the IC50 (METTL3/METTL14 [8]) was 8 nM.

`Clc1cc(-c2cn(Cc3cn4cc(CNCC5CCC5)ccc4n3)nn2)c2cn[nH]c2c1` gave a GI50 (Huh-7) of 210 nM, an IC50 (METTL3/METTL14 [8]) of under 5 nM and an IC50 (METTL3/METTL14 [9]) of 25 nM.

`O=C(O)c1ccccc1OCCc1cn(-c2ccc(-c3c(Cl)cccc3Cl)cc2)c2ccc(-c3ccc(F)cc3)cc12` showed a GI50 (Huh-7) of 14600 nM, an IC50 [4] of 4000 nM and an IC50 [5] of 2810 nM. It also gave an IC50 [10] of 4000 nM.

In the case of `CCOC(=O)c1ccccc1Nc1c(Cl)ccc(C)c1Cl`, the IC50 [3] is reported as 7000 nM.

For `COc1ncc(-c2ccc3sc(N)nc3c2)cn1`, the IC50 [2] was 3400 nM.

`COc1c(C)cnc(Cn2cc(CNC(=O)c3c(F)c(F)c(F)c(F)c3F)nn2)c1C` showed an IC50 (ECa-109 cell line) of 830 nM.

`CCS(=O)(=O)Nc1oc(-c2ccc(Cl)cc2)c(O)c1O` gave an IC50 (HeLa) of 8700 nM.

For `C(=N\NC1=NCCN1)/c1c2ccccc2c(/C=N/NC2=NCCN2)c2ccccc12` [BISANTRENE], the IC50 (OCI-AML2) was 100 nM.

Molecule `Cc1c(-c2ccc(-c3ccccc3F)cc2)nc2ccc(F)cc2c1C(=O)O` [BREQUINAR] has an IC50 (OCI-AML2) of 200 nM.

`CC(=O)Oc1cccc2c1C(=O)c1c(OC(C)=O)cc(C(=O)O)cc1C2=O` [DIACEREIN] gave an IC50 [6] of 1500 nM.

Work on `O=c1c2ccccc2[se]n1-c1ccccc1` [EBSELEN] yielded an IC50 [11] of 1600 nM.

For `Cc1ccc(Cl)c(Nc2ccccc2C(=O)O)c1Cl` [MECLOFENAMIC ACID], the IC50 [3] was 8000 nM.

`N=C(N)c1ccc2cc(OC(=O)c3ccc(N=C(N)N)cc3)ccc2c1` [NAFAMOSTAT MESYLATE] gave an IC50 [6] of 13800 nM.

`Nc1ncnc2c1ncn2[C@@H]1O[C@H](CSCC[C@H](N)C(=O)O)[C@@H](O)[C@H]1O` [S-ADENOSYLHOMOCYSTEINE] gave an IC50 (METTL3/METTL14 [12]) of 520 nM.

Molecule `O=C(O)[C@H]1O[C@@H](Oc2cc3oc(-c4ccc(O)cc4)cc(=O)c3c(O)c2O)[C@H](O)[C@@H](O)[C@@H]1O` [SCUTELLARIN] has an IC50 (METTL3/METTL14 [8]) of 19900 nM.

In the case of `Nc1ncnc2c1ncn2[C@@H]1O[C@H](C[C@@H](N)CC[C@H](N)C(=O)O)[C@@H](O)[C@H]1O` [SINEFUNGIN], the GI50 (Huh-7) is reported as 24800 nM and the IC50 (METTL3/METTL14 [12]) is reported as 1300 nM.
